Experiments:
Mcl-1 = experiment: Western blot of treated MOLM-14 cells; assay type: cell-based; conditions: MOLM-14, 24 hours
Procedure: After centrifugation for 15 minutes at 13-14000×g at 10° C. supernatants were mixed with one-third of a volume of NUPAGE™ LDS 4× Sample Buffer (Thermo Fisher Scientific) containing 5% 2-mercaptoethanol. Protein samples were prepared by heating at 37° C. for 10 min after the addition of denaturing sample buffer. […] Primary and secondary antibodies were to diluted in 0.05% TBS/Tween-20 containing 0.05% Casein Blocker. Protein bands were visualized using a commercially available chemiluminescence kit (Thermo Fisher Scientific) or by infrared laser scanner using ChemiXX6 G:box imager (Syngene, Frederick, Md., United States of America).

ceramide levels = experiment: Lipidomics (LC/MS) of ceramide levels in treated cells; assay type: cell-based; conditions: 24 hrs
Excerpt: Lipidomics: Lipids were extracted from cell lysates and analyzed on an Acquity I-Class/Xevo TQ-S Micro IVD System (Waters Corporation, Milford, Mass., United States of America) as described previously (Pearson et al. (2020) Ceramide Analogue SACLAC Modulates Sphingolipid Levels and MCL-1 Splicing to Induce Apoptosis in Acute Myeloid Leukemia. Mol Cancer Res 18(3):352-363). Mass spectrometry peaks were compared to internal standards, and all data are represented as picomoles of lipid per milligram of protein.
To determine potential metabolic mechanism underlying the efficacy of combinatorial CNL/AraC/Venetoclax (CAV) treatment, lipids were harvested to measure the effect of Venetoclax and AraC upon CNL metabolism by LC/MS. Cells were treated individually or in combination with CNL, Ara-C, and/or Venetoclax for 24 hrs. […] This lead to an increase in the C16/C24 ratio, which might support a pro-mitogenic response (FIG. 6H).

C1498 AML cells = experiment: Syngeneic C1498-luc AML model in C57BL/6J mice; assay type: in vivo, mouse
Procedure: FIG. 8C: Survival of C1498-bearing C57BL/6J mice were treated with either Control (Lip-Ghost), CNL (31.2 mg/kg), Cytarabine (75 mg/kg) or CNL+Cytarabine.
We initially utilized the immune-compromised NRG mice engrafted with MOLM-13 cells expressing luciferase. Mice were engrafted, treated with the various drug combinations, and disease burden measured by live animal luminescence and Kaplan-Meier curve. […] C1498 cells are a de novo AML cell line from a C57-blkJ mouse. […] Given this, no Venetoclax groups were included. C57-blkJ mice were injected with C1498 AML cells transduced to express luciferase.

Survivin = experiment: Western blot of treated MOLM-14 cells; assay type: cell-based; conditions: MOLM-14, 24 hours, independently
Procedure: (§1) FIGS. 7A-7I. CAV treatment alters expression of genes involved in cell survival relevant to AraC and Venetoclax resistance mechanism. MOLM-14 cells were treated with the listed conditions for 24 hours and protein harvested. Western blots were performed and quantitated via densitometry. Representative blots are shown in FIG. 7A and quantification in FIGS. 7B-7I. *: significant to Vehicle.
(§2) Western blotting: Whole cell lysates were prepared by dissolving cells in FOCUS™ Extraction Buffer III (G-Biosciences, St. Louis, Mo., United States of America; Catalog No. 786-222) containing protease inhibitors (Thermo Fisher Scientific Catalog No. A32955) for 10-15 minutes on ice with occasional shaking. After centrifugation for 15 minutes at 13-14000×g at 10° C. supernatants were mixed with one-third of a volume of NUPAGE™ LDS 4× Sample Buffer (Thermo Fisher Scientific) containing 5% 2-mercaptoethanol. Protein samples were prepared by heating at 37° C. for 10 min after the addition of denaturing sample buffer. Proteins were separated using SDS-PAGE on a 4-12% gel (Thermo Fisher Scientific) and transferred to Immobilon membrane (Bio-Rad). […]

XIAP = experiment: Western blot of treated MOLM-14 cells; assay type: cell-based; conditions: MOLM-14, 24 hours
Procedure: as §1, §2

MOLM-14 = experiment: MTS cell viability assay; assay type: cell-based; conditions: MOLM-14, ceramides for 24 hours, with CNL
Procedure: FIG. 4. Ceramide chain length altered biological and biophysical responses. MOLM-14 cells were treated with the indicated ceramides for 24 hours and viability was assessed by MTS.
MTS Cell Viability Assay: Cytotoxicity of nanoliposomal ceramide in AML cells was measured by plating 15,000 cells/well into 96-well plates followed by growth for 24 hours in a humidified 37° C. cell culture incubator in the presence of ghost liposomes, CNL or other drugs for 24 hours in 10% serum medium. After 24 h, MTS/PMS mixture was added and adsorption was read at 560 nm using Bio-Tek plate reader.
Cell viability MTS assays were performed in three AML cells lines: OCI-AML2, KG-1, AND MOLM-14 to determine their sensitivities to co-treatment with CNL, Ara-C, and Venetoclax. Table 1 summarized these cell lines, their sources, and the known driver mutations that are present in the cell lines. The cells lines were treated with concentrations that had been determined to be less than the EC50 so any synergistic or additive effects could be observed.

AML cells = conditions: recent studies by others; cited from earlier work

For `Nc1ccn([C@@H]2O[C@H](CO)[C@@H](O)[C@@H]2O)c(=O)n1` [AraC, cytarabine], the Mcl-1 expression (Mcl-1) was “not”, the ceramide levels (ceramide levels; single agent) was “significantly elevated” and the ceramide levels (ceramide levels; with co-treatment of CNL) was “raise ceramide levels”. For the same compound, the median survival time (C1498 AML cells; C1498-bearing C57BL/6J mice, CNL 31.2 mg/kg, Cytarabine 75 mg/kg, treated 7 days) was 41 days, the “survival” value (C1498 AML cells; C1498 model, single agent) was “moderate increase in survival” and the Survivin expression levels (Survivin) was “increased expression levels”. The XIAP expression (XIAP) was “not”.

With `CCCCCCCCCCCCC/C=C/[C@@H](O)[C@H](CO)NC(=O)CCCCCCCCCCCCCCC` [C16 ceramide] the “potentiation of CNL-induced cell death” value (MOLM-14) was “potentiated”.

With `CCCCCCCCCCCCC/C=C/[C@@H](O)[C@H](CO)NC(=O)CCCCCCCCCCCCCCCCCCCCCCC` [C24 ceramide] the “potentiation of CNL-induced cell death” value (MOLM-14) was “not”.

For `CCCCCCCCc1ccc(CCC(N)(CO)CO)cc1` [FTY720], the “apoptosis / death of AML cells” value (AML cells) is listed as “rapidly induced ceramide-mediated apoptosis”.

— US20220362177A1, “CERAMIDE RATIOS AS PREDICTIVE AND THERAPEUTIC BIOMARKERS FOR LEUKEMIAS” (University of Virginia Patent Foundation, priority 2019, published 2022)
